Measured values from paper PMC11245370, “3-Position Biaryl Endochin-like Quinolones with Enhanced Antimalarial Performance” (ACS Infectious Diseases, 2024).
Like-named read-outs stand apart in the source and are kept apart here.

Tests used:
[1] = test system: P. falciparum atovaquone-resistant clinical isolate Tm90-C2B; assay: SYBR Green I antiplasmodial assay, Tm90-C2B; format: cell-based; details: Plasmodium falciparum, read-out: P. falciparum IC50 values, Tm90-C2B
Method: (§1) All of this information is stored in a database with information relating to chemical structure, physical chemical properties, cross resistance patterns, mammalian cell cytotoxicity, enzyme inhibitor profiles, and synthesis details. Pharmacological data and in vivo efficacy data are also stored in the database for molecules of particular interest. […] We synthesized the compound in an initial batch size of about 800 mg as described above. […] Fluorescence readings were captured with a fluorescence plate reader and processed by nonlinear regression analysis using the GraphPad Prism software to provide IC50 values for each determination. Stock solutions were freshly prepared daily in DMSO in glass vials.
(§2) Laboratory strains of P. falciparum were cultured in human erythrocytes by standard methods. The parasites were grown in culture medium with fresh human erythrocytes maintained at 2% hematocrit at 37 °C in low-oxygen conditions (5% O2, 5% CO2, 90% N2). […] Cultures were maintained at less than 10% parasitemia by transfer of infected cells to fresh erythrocytes and culture medium every 3 or 4 days.
(§3) SYBR green I assay. In vitro antiplasmodial activity was assessed using a published SYBR Green I fluorescence-based method.[20] The drugs were added to 96-well plates using twofold serial dilutions in complete medium. […] Asynchronous P. falciparum parasites were diluted with uninfected erythrocytes and added to the wells to give a final culture volume of 100 μL at 2% hematocrit and 0.2% parasitemia. […] The parasites were then lysed by adding 100 μL of SYBR green I lysis buffer containing 0.2 μL/ml SYBR green I dye (10,000×) in 20 mM Tris (pH 7.5), 5 mM EDTA, 0.008% (wt/vol) saponin, and 0.08% (v/v) Triton X-100. The plates were incubated at room temperature for an hour in the dark. […] If the IC50 value fell outside of the initially tested range, then the range was adjusted up or down, and the assay was repeated twice.

[2] = test system: P. falciparum drug-sensitive D6 strain; assay: SYBR Green I antiplasmodial assay, D6 strain; format: cell-based; details: Plasmodium falciparum, read-out: P. falciparum IC50 values, D6
Method: as §1, §2, §3

[3] = test system: P. yoelii blood-stage infection; assay: Single-dose cure of blood-stage murine malaria; format: in vivo, Plasmodium yoelii; details: lowest single oral dose curing all four mice, day 30
Method: (§4) On day 5, a drop of blood was taken from the tail, and a blood smear was prepared, fixed with methanol, and stained with Giemsa. The operator then examined the stained smear microscopically to determine percent parasitemia. […] In this model, animals were inoculated exactly as for the 4 day test on day 0; however, drug was administered only on day 1, whereas smears were made on day 5 and again weekly thereafter for animals that remained aparasitemic. Animals that remained aparasitemic on day 30 were scored as cures.
The effectiveness of selected 3-biaryl ELQs and prodrugs was assessed vs the blood-stage infection for single-dose cures. Mice were infected iv with 3.5 × 10^4P. yoelii infected RBCs as described for the 4 day test above. Drug administration occurred on the day after inoculation (day 1). Test agents were dissolved in PEG-400 and administered ig once. On the fifth day, blood films were prepared, and % parasitemia was assessed. Animals remaining parasite-free for 30 days after drug administration were considered cured. The initial dosing range was 0.25, 0.5, 1, 3, and 10 mg/kg, including a control. Experiments were performed with four mice per group to ensure statistical accuracy. The reported parameter for these studies is the lowest single dose that provides a cure to all four animals in the group.

[4] = test system: P. yoelii blood-stage infection; details: mice; for blood stage in vivo efficacy, 4 day Peters test results, NRD (nonrecrudescence dose): oral gavage days 1-4, followed to day 30
Method: as §4
The P. yoelii 4 day test monitors suppression of patent infection in female CF1 mice. The test began with the inoculation (iv) of parasitized erythrocytes (3.5 × 10^4P. yoelli) (from a donor animal) on the first day of the experiment (D0). […] Initially, the 3-biaryl-ELQs were tested at doses of 0.0025, 0.005, 0.01, 0.03, 0.1, 0.3, 1.0, and 10 mg/kg/day, including a vehicle-only (PEG400) control. After completion of drug treatment, a blood sample was collected (by pricking the tail vein) for determination of parasite burden beginning on the day after the final dose (D5). Percent parasitemia was assessed by direct microscopic analysis of Giemsa-stained blood smears. […] Animals with observable parasitemia following the experiment were euthanized; animals cleared of parasites from the bloodstream were observed daily with assessment of parasitemia performed weekly until day 30, at which point the animals were scored as cured of infection. […] Nonlinear regression analysis was used for objective determination of ED50’s and ED90’s from the accumulated data as well as the nonrecrudescence dose (NRD). The 4 day test protocol was reviewed and approved by the local IACUC board at the Portland VA Medical Center. Experiments were performed with four mice per group to ensure statistical accuracy.

[5] = test system: P. falciparum multidrug-resistant Dd2 strain; assay: microbe, parasite or virus in culture; format: cell-based; details: Plasmodium falciparum, DD2, 72 h, read-out: P. falciparum IC50 values, Dd2
Method: as §1, §2, §3

[6] = target: human liver cytochrome bc1 complex (Homo sapiens, UniProt P00156); design: method as in Nilsen et al., 2013; details: ref Nilsen et al., 2013; cited from earlier work
[7] = test system: P. falciparum ELQ-300-resistant D1 clone; assay: microbe, parasite or virus in culture; format: cell-based; details: Plasmodium falciparum, 72 h, read-out: P. falciparum IC50 values, D1
[8] = HepG2 cytotoxicity / mitochondrial toxicity (TiterGlo ATP, galactose medium); details: human, HepG2 cells
Method: HepG2 was routinely cultured in DMEM containing 10% fetal calf serum and 100 IU/mL penicillin and 100 μg/mL streptomycin (complete medium). For studies to investigate the potential for mitochondrial toxicity by selected 3-biaryl-ELQs, the medium contained galactose rather than glucose to force the cells to produce ATP through oxidative phosphorylation, which in turn makes them sensitive to mitochondrial toxicants.[36] […] After this period, the culture medium was removed, and the cells were shifted to galactose-containing medium with test drugs at concentrations ranging from 0 to 10 μM. Drug dilutions were prepared from DMSO stocks into galactose-containing medium. […] After incubation, the contents of each well were removed, and 25 μL of TiterGlo II reagent mix containing luciferase, detergent, and luciferin was added to each well along with 25 μL of culture medium. […] At this point, the plates were read on a luminometer (SpectraMax iD3 iD5Multi-Mode Microplate Reader), and the data were processed to yield the percent decrease in ATP production relative to no-drug control values. These values reflect the potential damage caused by mitochondrial toxicants due to reduced intracellular ATP levels caused by interference with the human mitochondrial electron transport chain. Assays were set up in triplicate.

[9] = ELQ-300, active metabolite of ELQ-331; comparison value, no reference given; cited from earlier work
[10] = test system: P. falciparum atovaquone-resistant clinical isolate Tm90-C2B; details: earlier work of the authors, no reference given; cited from earlier work
[11] = earlier work of the authors, no reference given; cited from earlier work
[12] = test system: P. falciparum multidrug-resistant Dd2 strain; details: earlier work of the authors, no reference given; cited from earlier work
[13] = test system: P. falciparum drug-sensitive D6 strain; details: earlier work of the authors, no reference given; cited from earlier work
[14] = oral gavage days 1-4, parasitemia day 5, prodrugs dosed on molar equivalency to parent

Row | SMILES | IC50 ([1]; TM90, 72 h, SYBR Green, mean (95% confidence interval of fit)) | IC50 ([2]; D6, 72 h, SYBR Green, mean (95% confidence interval of fit)) | blood stage in vivo efficacy, single dose cure [3] | blood stage in vivo efficacy, 4 day Peters test results, NRD (nonrecrudescence dose) [4] | blood stage in vivo efficacy, 4 day Peters test results, ED50 [4, 14] | IC50 [5] | EC50 [6] | IC50 [7] | IC50 at 24 h [8] | IC50 ([1]; TM90, 72 h) | IC50 ([2]; D6, 72 h) | elimination T1/2 [9] | blood stage in vivo efficacy, 4 day Peters test results, ED90 [4, 14] | IC50 [10] | metabolic stability [11] | IC50 [12] | IC50 [13]
1 | O=C1C(O)=C([C@H]2CC[C@H](c3ccc(Cl)cc3)CC2)C(=O)c2ccccc21 [Atovaquone, reference compound] | > 1000 nM | 0.08 nM | 10 mg/kg/day | 10 mg/kg/day | 0.1 mg/kg/day | 0.4 nM | 460 nM | 0.4 nM | – | – | – | – | – | – | – | – | –
2 | COc1cc2[nH]c(C)c(-c3ccc(Oc4ccc(OC(F)(F)F)cc4)cc3)c(=O)c2cc1Cl [ELQ-300] | – | – | >25 mg/kg/day | 1.0 mg/kg/day | 0.02 mg/kg/day | 4.2 nM | > 10000 nM | – | > 10 µM | 2.5 nM | 3.3 nM | 14.6 h | 0.06 mg/kg/day | – | – | – | –
3 | COc1cc2[nH]c(C)c(-c3ccc(Oc4cccc(OC(F)(F)F)c4)cc3)c(=O)c2cc1Cl [ELQ-307] | – | – | – | – | – | – | – | – | – | – | – | – | – | ≤ 0.03 nM | metabolically unstable | ≤ 0.03 nM | ≤ 0.03 nM
